# Data reported in US20240116845A1, “INDENE COMPOUNDS, PHARMACEUTICAL COMPOSITIONS THEREOF, AND THEIR THERAPEUTIC APPLICATIONS” (NucMito Pharmaceuticals Co., Ltd., priority 2021, published 2024).
# Assays:
# Format in all cases: cell-based
# [1] = tested on: alpha-smooth muscle actin (α-SMA); test: Inhibition of TGF-β induced expression of alpha-smooth muscle actin in CFSC cells (western blot); conditions: compound at 10 μM, TGF-β (10 ng/mL), 24 hours
# How it was run: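 Rat CCl4-treated hepatic stellate (CFSC) cells in serum-free DMEM were given compound at 10 μM plus TGF-β 10 ng/mL for 24 h at 37 °C. α-SMA measured by western blot with β-actin, bands quantified densitometrically. Percent inhibition is the decrease in band intensity versus TGF-β alone.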
# [2] = tested on: A431 (epidermoid carcinoma); test: Antiproliferative activity, CCK-8 cell viability; conditions: Homo sapiens, A-431, 72 h, read-out: Inhibition of Cancerous Cells, A431; for inhibition at 3.3 µM: compound concentration of 3.3 μM; for inhibition at 10 µM: compound concentration of 10 μM; for inhibition at 30 µM: compound concentration of 30 μM
# How it was run: (§1)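 Cells in DMEM with 10% FBS were treated with compound at 3.3, 10 or 30 μM for 72 h at 37°C. Viability was read by CCK-8 absorbance at 450 nm and expressed relative to DMSO-treated cells. Growth inhibition was binned as ≥50%, 30–50% or <30%.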
# [3] = tested on: A549 (lung adenocarcinoma); test: Antiproliferative activity, CCK-8 cell viability; conditions: Homo sapiens, 72 h, read-out: Inhibition of Cancerous Cells, A549; for inhibition at 3.3 µM: compound concentration of 3.3 μM; for inhibition at 10 µM: compound concentration of 10 μM; for inhibition at 30 µM: compound concentration of 30 μM
# [4] = tested on: B16F10 (malignant melanoma); test: Antiproliferative activity, CCK-8 cell viability; conditions: Mus musculus, B16-F10, 72 h, read-out: Inhibition of Cancerous Cells, B16F10; for inhibition at 3.3 µM: compound concentration of 3.3 μM; for inhibition at 10 µM: compound concentration of 10 μM; for inhibition at 30 µM: compound concentration of 30 μM
# How it was run: as §1
# HeLa (cervical cancer) = test: Antiproliferative activity, CCK-8 cell viability; conditions: Homo sapiens, 72 h, read-out: Inhibition of Cancerous Cells, HELA; for inhibition at 3.3 µM: compound concentration of 3.3 μM; for inhibition at 10 µM: compound concentration of 10 μM; for inhibition at 30 µM: compound concentration of 30 μM
# HepG2 (liver cancer) = test: Antiproliferative activity, CCK-8 cell viability; conditions: Homo sapiens, 72 h, read-out: Inhibition of Cancerous Cells, HepG2; for inhibition at 3.3 µM: compound concentration of 3.3 μM; for inhibition at 10 µM: compound concentration of 10 μM; for inhibition at 30 µM: compound concentration of 30 μM
# How it was run: as §1
# [5] = tested on: MDA-MB-231 (breast cancer); test: Antiproliferative activity, CCK-8 cell viability; conditions: Homo sapiens, 72 h, read-out: Inhibition of Cancerous Cells, MDA-MB-231; for inhibition at 3.3 µM: compound concentration of 3.3 μM; for inhibition at 10 µM: compound concentration of 10 μM; for inhibition at 30 µM: compound concentration of 30 μM
# How it was run: as §1
# SW480 (colon cancer) = test: Antiproliferative activity, CCK-8 cell viability; conditions: Homo sapiens, 72 h, read-out: Inhibition of Cancerous Cells, SW480; for inhibition at 3.3 µM: compound concentration of 3.3 μM; for inhibition at 10 µM: compound concentration of 10 μM; for inhibition at 30 µM: compound concentration of 30 μM
# How it was run: as §1
Structure (SMILES),inhibition at 10 µM [1] [%],inhibition at 3.3 µM [2] [%],inhibition at 10 µM [2] [%],inhibition at 30 µM [2] [%],inhibition at 3.3 µM [3] [%],inhibition at 10 µM [3] [%],inhibition at 30 µM [3] [%],inhibition at 3.3 µM [4] [%],inhibition at 10 µM [4] [%],inhibition at 30 µM [4] [%],inhibition at 3.3 µM (HeLa (cervical cancer)) [%],inhibition at 10 µM (HeLa (cervical cancer)) [%],inhibition at 30 µM (HeLa (cervical cancer)) [%],inhibition at 3.3 µM (HepG2 (liver cancer)) [%],inhibition at 10 µM (HepG2 (liver cancer)) [%],inhibition at 30 µM (HepG2 (liver cancer)) [%],inhibition at 3.3 µM [5] [%],inhibition at 10 µM [5] [%],inhibition at 30 µM [5] [%],inhibition at 3.3 µM (SW480 (colon cancer)) [%],other results
"CC1=C(CC(=O)N(C)O)c2cc(F)ccc2/C1=C\c1ccc(Oc2ccccc2)cc1 [Compound B1, 2-[(1Z)-5-Fluoro-2-methyl-1-[(4-phenoxyphenyl)methylidene]-1H-inden-3-yl]-N-hydroxy-N-methylacetamide]",50 to 80,≥ 50,≥ 50,≥ 50,≥ 50,≥ 50,≥ 50,≥ 50,≥ 50,≥ 50,30 to 50,≥ 50,≥ 50,< 30,30 to 50,≥ 50,≥ 50,≥ 50,≥ 50,≥ 50,inhibition at 10 µM (SW480 (colon cancer)): ≥ 50%; inhibition at 30 µM (SW480 (colon cancer)): ≥ 50%
"CC1=C(CC(=O)N(C)O)c2cc(F)ccc2/C1=C\c1ccc(Oc2ccc(F)cc2)cc1 [Compound B2, 2-[(1Z)-5-Fluoro-1-{[4-(4-fluorophenoxy)phenyl]methylidene}-2-methyl-1H-inden-3-yl]-N-hydroxy-N-methylacetamide]",≥ 80,≥ 50,≥ 50,≥ 50,≥ 50,≥ 50,≥ 50,≥ 50,≥ 50,≥ 50,30 to 50,30 to 50,≥ 50,< 30,30 to 50,≥ 50,≥ 50,≥ 50,≥ 50,≥ 50,inhibition at 10 µM (SW480 (colon cancer)): ≥ 50%; inhibition at 30 µM (SW480 (colon cancer)): ≥ 50%
"CC1=C(CC(=O)N(C)O)c2cc(F)ccc2/C1=C\c1cccc(Oc2ccccc2)c1 [Compound B5, (Z)-2-(5-Fluoro-2-methyl-1-(3-phenoxybenzylidene)-1H-inden-3-yl)-N-hydroxy-N-methylacetamide]",50 to 80,≥ 50,≥ 50,≥ 50,30 to 50,≥ 50,≥ 50,30 to 50,≥ 50,≥ 50,< 30,≥ 50,≥ 50,≥ 50,≥ 50,≥ 50,< 30,≥ 50,≥ 50,30 to 50,inhibition at 10 µM (SW480 (colon cancer)): ≥ 50%; inhibition at 30 µM (SW480 (colon cancer)): ≥ 50%
"CC1=C(CC(=O)O)c2cc(F)ccc2/C1=C\c1ccc(Oc2ccc(F)c(F)c2)cc1 [Compound D5, 2-[(1Z)-5-Fluoro-2-methyl-1-({4-[3,4-difluorophenoxy]phenyl}methylidene)-1H-inden-3-yl]acetic acid]",≥ 80,< 30,≥ 50,≥ 50,30 to 50,≥ 50,≥ 50,≥ 50,≥ 50,≥ 50,30 to 50,≥ 50,≥ 50,≥ 50,≥ 50,≥ 50,≥ 50,≥ 50,≥ 50,≥ 50,inhibition at 10 µM (SW480 (colon cancer)): ≥ 50%; inhibition at 30 µM (SW480 (colon cancer)): ≥ 50%
"O=C(O)CC1=C(Cc2ccccc2)/C(=C/c2ccc(Oc3ccc(F)cc3)cc2)c2ccc(F)cc21 [Compound D9, 2-[(1Z)-5-Fluoro-2-benzyl-1-({4-[4-fluorophenoxy]phenyl}methylidene)-1H-inden-3-yl]acetic acid]",≥ 80,30 to 50,≥ 50,≥ 50,30 to 50,≥ 50,≥ 50,< 30,≥ 50,≥ 50,30 to 50,30 to 50,≥ 50,< 30,< 30,≥ 50,≥ 50,≥ 50,≥ 50,30 to 50,inhibition at 10 µM (SW480 (colon cancer)): ≥ 50%; inhibition at 30 µM (SW480 (colon cancer)): ≥ 50%
"CC1=C(CC(=O)O)c2cc(F)ccc2/C1=C\c1ccc(Oc2ccc(F)cc2)cc1C(F)(F)F [Compound D12, 2-[(1Z)-1-{[2-Trifluoromethyl-4-(4-fluorophenoxy)phenyl]methylidene}-5-fluoro-2-methyl-1H-inden-3-yl]acetic acid]",< 30,30 to 50,≥ 50,≥ 50,30 to 50,≥ 50,≥ 50,< 30,≥ 50,≥ 50,< 30,< 30,< 30,≥ 50,≥ 50,≥ 50,≥ 50,≥ 50,≥ 50,30 to 50,inhibition at 10 µM (SW480 (colon cancer)): ≥ 50%; inhibition at 30 µM (SW480 (colon cancer)): ≥ 50%
"CC1=C(CC(=O)O)c2cc(F)ccc2/C1=C\c1ccc(Oc2ccc(F)cc2)c(C)c1 [Compound D13, 2-[(1Z)-1-{[3-Methyl-4-(4-fluorophenoxy)phenyl]methylidene}-5-fluoro-2-methyl-1H-inden-3-yl]acetic acid]",< 30,30 to 50,≥ 50,≥ 50,30 to 50,≥ 50,≥ 50,≥ 50,≥ 50,≥ 50,< 30,30 to 50,≥ 50,30 to 50,30 to 50,≥ 50,< 30,≥ 50,≥ 50,30 to 50,inhibition at 10 µM (SW480 (colon cancer)): ≥ 50%; inhibition at 30 µM (SW480 (colon cancer)): ≥ 50%
"CC1=C(CC(=O)O)c2cc(F)ccc2/C1=C\c1ccc(Oc2ccc(F)cc2)cc1C [Compound D14, 2-[(1Z)-1-{[2-Methyl-4-(4-fluorophenoxy)phenyl]methylidene}-5-fluoro-2-methyl-1H-inden-3-yl]acetic acid]",≥ 80,30 to 50,≥ 50,≥ 50,30 to 50,≥ 50,≥ 50,≥ 50,≥ 50,≥ 50,< 30,30 to 50,≥ 50,30 to 50,30 to 50,≥ 50,30 to 50,≥ 50,≥ 50,30 to 50,inhibition at 10 µM (SW480 (colon cancer)): ≥ 50%; inhibition at 30 µM (SW480 (colon cancer)): ≥ 50%
